Assay [1] concerns HIV-1 isolates IIIB and/or RF in MT-2 cells. As to the kind of experiment: SRI primary anti-HIV screen, MTT assay of inhibition of HIV-induced cell killing in MT2 cells. It is filed as cell-based. As to conditions: for IC50: Human immunodeficiency virus 1, IIIB, MT2, read-out: SRI MT2 IC50 ng/ml, MT2 cells; for SRI MT2 IC50: MT2 cells. The source says: I. Primary Drug Screening of Anti-HIV Compounds at Southern Research Institute (SRI) (Results recorded in Table 1 are designated “SRI CEM (ng/ml)” or “SRI MT2 (ng/ml)”)
(§1) A. Principle of MTT Assay:
(§2) SRI has an established program for the primary antiviral analysis of compounds in microtiter assays which measures the ability of a selected compound to inhibit HIV-induced cell killing. This assay involves the conversion of the tetrazolium dye MTT to a colored formazan product by mitochondrial enzymes in metabolically active cells. This assay system is used at SRI to screen over 30,000 compounds per year. Briefly, the assay involves the infection of CEM or MT2 cells in round bottom 96-well plates. The compound of interest is added just prior to infection. Following 6 days of incubation at 37° C. the plates are stained with MTT. The results of the assay are quantitated spectrophotometrically on a Molecular Devices Vmax plate reader. The data are analyzed by linear regression utilizing an in-house software program to calculate antiviral activity (IC25, IC50, IC95) and toxicity (TC25, TC50, TC95) as well as other values.
(§3) Primary antiviral assays are routinely performed in CEM or MT-2 cells.
(§4) B. Standard Screening Assays in CEM and MT-2 Cells
(§5) 1. Compound dilution and delivery to the plates
Drugs are solubilized in the appropriate vehicle such as distilled water or DMSO if necessary. Latex gloves, lab coats and masks are used during all phases of the handling process to prevent exposure to potentially harmful agents. The drug is prepared at the appropriate concentration and stored at −20° C. until used by the screening laboratory. The first dilution of each compound is made in a dilution tube with medium to yield a concentration two-fold that of the highest test concentration. Sterile titer tubes are then used to make serial one half-log dilutions of each compound. Following drug dilution, the diluted compound is added to the appropriate well of a 96-well microtiter plate. […] When testing includes only six dilutions, two drugs can be assayed on a single microtiter plate. The drugs are added to the plate in a final volume of 100 microliters.
(§6) During the time the drug dilutions are prepared, cells are washed and counted. Viability is monitored by trypan blue dye exclusion and assays are not performed if the viability falls below 90%. Cells are maintained in an exponential growth phase and are split 1:2 on the day prior to assay to assure exponential growth rate.
(§7) For the primary screen, the cell lines utilized are CEM and MT-2. Unless otherwise indicated, the medium used is RPMI 1640 with 10% heat-inactivated fetal calf serum (FBS), glutamine and antibiotics.
(§8) Cells are propagated at 37° C. in an atmosphere of 5% CO2 in air. The virus employed for this work is HIV-1 isolates IIIB and/or RF, which are prepared by an acute infection process.
(§9) Briefly, virus-infected cells are pelleted on a daily basis beginning at three days post-infection until the virus has killed all of the cells in the culture. Reverse transcriptase activity and p24 ELISA are used to identify pools with the greatest amout of virus.
(§10) These 24-hour harvests are pooled, filtered and frozen at −90° C. Prior to use in the assay, the infectious pool of virus is titered on all available cell lines in order to determine the amount of virus required in the antiviral assay.
In general, pools produced by the acute infection method require the addition of one microliter of infectious virus per well resulting in the screening of drugs at a multiplicity of infection of 0.01. In this manner, enough virus is prepared and frozen to complete over one thousand microtiter plates, allowing the testing of up to two thousand compounds from a single stock of infectious virus. The use of a single stock of virus for a long period of testing has very favorable effects on the repeatability of the assay systems. […]
On the technique in general: Tetrazolium dyes change colour on reduction, which living cells bring about.

Assay [2] relates to HIV-1 isolates IIIB and/or RF in CEM cells. As to the kind of experiment: SRI primary anti-HIV screen, MTT assay of inhibition of HIV-induced cell killing in CEM cells. It is filed as cell-based. As to conditions: for SRI CEM IC50: CEM cells; for IC50: Human immunodeficiency virus 1, IIIB, CCRF-CEM, read-out: SRI CEM IC50 ng/mL, CEM cells. How it is done:
as §1
as §2, with “This” for “SRI has an established program for the primary antiviral analysis of compounds in microtiter assays which measures the ability of a selected compound to inhibit HIV-induced cell killing. This”
as §3, §4, §5
Drugs are solubilized in the appropriate vehicle such as distilled water or DMSO if necessary. Latex gloves, lab coats and masks are used during all phases of the handling process to prevent exposure to potentially harmful agents. The drug is prepared at the appropriate concentration and stored at −20° C. until used by the screening laboratory. The first dilution of each compound is made in a dilution tube with medium to yield a concentration two-fold that of the highest test concentration. Sterile titer tubes are then used to make serial one half-log dilutions of each compound. Following drug dilution, the diluted compound is added to the appropriate well of a 96-well microtiter plate. Up to 12 dilutions can be assayed conveniently in triplicate on a single plate with all appropriate controls including cell control, virus control, toxicity control, drug color control, medium control and plastic (background) control. When testing includes only six dilutions, two drugs can be assayed on a single microtiter plate. The drugs are added to the plate in a final volume of 100 microliters.
as §6, §7, §8, §9, §10
In general, pools produced by the acute infection method require the addition of one microliter of infectious virus per well resulting in the screening of drugs at a multiplicity of infection of 0.01. In this manner, enough virus is prepared and frozen to complete over one thousand microtiter plates, allowing the testing of up to two thousand compounds from a single stock of infectious virus.
Virus infection of the CEM and MT-2 cells for the antiviral assay is carried out in a bulk infection process.

Values after ≈ are worked out from the molar mass of the structure shown. Values joined by “and” are separate entries in the source; they are usually repeats but may differ in a detail not shown here. Identical values can stand only once.

`CC(C)(C)NC(=O)C1CC2CCCCC2CN1CC(O)C(Cc1ccccc1)NC(=O)c1ccc[n+]([O-])c1` (stereo not drawn) [Example 5, [3S-(3R*,4aR*,8aR*,2′S*,3′R*)]-2-[2′-Hydroxy-3′-phenylmethyl-4′-aza-5′-oxo-5′-(pyrid-3″yl-N-oxidyl)pentyl] decahydroisoquinoline-3-N-t-butylcarboxamide]: in assay [1], the IC50 was found to be 7800 ng/mL (≈ 14.9 µM) and the “SRI MT2 IC50” value was found to be 5030 ng/mL. Moreover, in assay [2], the “SRI CEM IC50” value stood at 4430 ng/mL and the IC50 turned out to be 4970 ng/mL (≈ 9.51 µM).
On to `CC(C)c1c(O)cccc1C(=O)NC(Cc1ccccc1)C(O)CN1CC2CCCCC2CC1C(=O)NC(C)(C)C` (stereo not drawn) [Example 20, [3S-(3R*,4aR*,8aR*,2′S*,3′R*)]-2-[2′-Hydroxy-3′-phenylmethyl-4′-aza-5′-oxo-5′-(2″-iospropyl-3″-hydroxyphenyl)pentyl] decahydroisoquinoline-3-N-t-butylcarboxamide], for which the results for the IC50 in assay [1] and in assay [2] were 144 ng/mL (≈ 0.255 µM) and 153 ng/mL (≈ 0.271 µM), respectively.
In the case of `Cc1c(N)cccc1C(=O)NC(Cc1ccccc1)C(O)CN1CC2CCCCC2CC1C(=O)NC(C)(C)C` (stereo not drawn) [Example 18, [3S-(3R*,4aR*,8aR*,2′S*,3′R*)]-2-[2′-Hydroxy-3′-phenylmethyl-4′-aza-5′-oxo-5′-(2″-methyl-3″-aminophenyl)pentyl] decahydroisoquinoline-3-N-t-butylcarboxamide], in assay [1], the IC50 came to 254 ng/mL (≈ 0.475 µM) and the “SRI MT2 IC50” value came out at 232 ng/mL. Moreover, in assay [2], the “SRI CEM IC50” value was found to be 231 ng/mL and the IC50 is 256 ng/mL (≈ 0.479 µM).
Regarding `Cc1c(O)cccc1C(=O)NC(Cc1ccccc1)C(O)CN1CC2CCCCC2CC1C(=O)NC(C)(C)C` (stereo not drawn) [Example 23, [3S-(3R*,4aR*,8aR*,2′S*,3′R*)]-2-[2′-Hydroxy-3′-phenylmethyl-4′-aza-5′-oxo-5′-(2″-methyl-3″-hydroxyphenyl)pentyl] decahydroisoquinoline-3-N-t-butylcarboxamide], the “SRI MT2 IC50” value in assay [1] amounted to 6.27 ng/mL. Further, the “SRI CEM IC50” value in assay [2] was found to be 8.62 ng/mL.
As to `CCCc1c(O)cccc1C(=O)NC(Cc1ccccc1)C(O)CN1CC2CCCCC2CC1C(=O)NC(C)(C)C` (stereo not drawn) [Example 22, [3S-(3R*,4aR*,8aR*,2′S*,3′R*)]-2-[2′-Hydroxy-3′-phenylmethyl-4′-aza-5′-oxo-5′-(2″-propyl-3″-hydroxyphenyl)pentyl] decahydroisoquinoline-3-N-t-butylcarboxamide], the results for the IC50 in assay [1] and in assay [2] were 53 ng/mL (≈ 0.094 µM) and 136 ng/mL (≈ 0.241 µM), respectively.
As for `CC(C)(C)NC(=O)C1CC2CCCCC2CN1CC(O)C(Cc1ccccc1)NC(=O)c1c(Cl)ccc(O)c1Cl` (stereo not drawn) [Example 17, [3S-(3R*,4aR*,8aR*,2′S*,3′R*)]-2-[2′-Hydroxy-3′-phenylmethyl-4′-aza-5′-oxo-5′-(2″,6″-dichloro-3″-hydroxyphenyl)pentyl] decahydroisoquinoline-3-N-t-butylcarboxamide], the “SRI MT2 IC50” value in assay [1] is 8990 ng/mL and 5390 ng/mL. Further, the “SRI CEM IC50” value in assay [2] is 2900 ng/mL and 2500 ng/mL.
Consider `CCc1c(O)cccc1C(=O)NC(Cc1ccccc1)C(O)CN1CC2CCCCC2CC1C(=O)NC(C)(C)C` (stereo not drawn) [Example 3, [3S-(3R*,4aR*,8aR*,2′S*,3′R*)]-2-[2′-Hydroxy-3′-phenylmethyl-4′-aza-5′-oxo-5′-(2″-ethyl-3″-hydroxyphenyl)pentyl] decahydroisoguinoline-3-N-t-butylcarboxamide], for which, in assay [1], the IC50 was found to be 21.3 ng/mL (≈ 0.0387 µM) and the “SRI MT2 IC50” value is 21.5 ng/mL. For the same compound, in assay [2], the “SRI CEM IC50” value was 11.3 ng/mL and the IC50 amounted to 15.2 ng/mL (≈ 0.0276 µM).
Turning to `Cc1c(O)cccc1C(=O)NC(Cc1ccccc1)C(O)CN1CC2CCCCC2CC1C(=O)NC(C)(C)C` (stereo not drawn) [Example 12, [3S-(3R*,4aR*,8aR*,2′S*,3′R*)]-2-[2′-Hydroxy-3′-phenylmethyl-4′-aza-5′-oxo-5′-(2″-methyl-3″-hydroxyphenyl)pentyl] decahydroisoquinoline-3-N-t-butylcarboxamide], in assay [1], the “SRI MT2 IC50” value was 24.3 ng/mL. Besides, in assay [2], the “SRI CEM IC50” value came out at 11.8 ng/mL and the IC50 was 16.5 ng/mL (≈ 0.0308 µM).
Consider `CC(C)(C)NC(=O)C1CC2CCCCC2CN1CC(O)C(Cc1ccccc1)NC(=O)c1cccc(O)c1F` (stereo not drawn) [Example 1, [3S-(3R*,4aR*,8aR*,2′S*,3′R*)]-2-[2′-Hydroxy-3′-phenylmethyl-4′-aza-5′-oxo-5′-(2″-fluoro-3″-hydroxyphenyl)pentyl]decahydroisoquinoline-3-N-t-butylcarboxamide], for which, in assay [1], the IC50 was determined as 1310 ng/mL (≈ 2.43 µM) and the “SRI MT2 IC50” value was 1500 ng/mL. Moreover, in assay [2], the “SRI CEM IC50” value turned out to be 1380 ng/mL and the IC50 was determined as 1000 ng/mL (≈ 1.85 µM).
As for `Cc1c(O)cccc1C(=O)N[C@@H](CSc1ccc2ccccc2c1)[C@H](O)CN1CCCC[C@H]1C(=O)NC(C)(C)C` [Example 25, [2S-(2R*,2′S*,3′S*)]-1-[2′-Hydroxy-3′-(naphth-2-ylthiomethyl-4′-aza-5′-oxo-5′-(2″-methyl-3″-hydroxyphenyl)pentyl]piperidine-2-N-t-butylcarboxamide], the IC50 in assay [1] was 169 ng/mL (≈ 0.3 µM); in assay [2], 211 ng/mL (≈ 0.374 µM).
As for “[3S-(3R*,4aR*,8aR*,2′S*,3′S*)]-2-[2′-Hydroxy-3′-phenylmethyl-4′-aza-5′-oxo-5′-[2″-methyl-3″-N-(methylsulfonyl)amino-phenyl)]pentyl] decahydroisoguinoline-3-N-t-butylcarboxamide [Example 36]”, in assay [1], the “SRI MT2 IC50” value is 1870 ng/mL and 2300 ng/mL. Moreover, in assay [2], the “SRI CEM IC50” value was 2430 ng/mL and 1730 ng/mL.
Regarding `CCCCc1c(O)cccc1C(=O)NC(Cc1ccccc1)C(O)CN1CC2CCCCC2CC1C(=O)NC(C)(C)C` (stereo not drawn) [Example 21, [3S-(3R*,4aR*,8aR*,2′S*,3′R*)]-2-[2′-Hydroxy-3′-phenylmethyl-4′-aza-5′-oxo-5′-(2″-butyl-3′″-hydroxyphenyl)pentyl] decahydroisoquinoline-3-N-t-butylcarboxamide], the IC50 was 427 ng/mL (≈ 0.739 µM) in assay [1] and 443 ng/mL (≈ 0.767 µM) in assay [2].
For `CC(C)(C)NC(=O)C1CC2CCCCC2CN1CC(O)C(Cc1ccccc1)NC(=O)c1cccnc1Cl` (stereo not drawn) [Example 2, [3S-(3R*,4aR*,8aR*,2′S*,3′R*)]-2-[2′-Hydroxy-3′-phenylmethyl-4′-aza-5′-oxo-5′-(2″-chloro-pyrid-3″-yl)pentyl] decahydroisoquinoline-3-N-t-butylcarboxamide], in assay [1], the IC50 was 1580 ng/mL (≈ 2.92 µM) and the “SRI MT2 IC50” value worked out at 1630 ng/mL. Further, in assay [2], the “SRI CEM IC50” value worked out at 1580 ng/mL and the IC50 came to 1380 ng/mL (≈ 2.55 µM).
